Experimental data reported in patent US20220183287A1, “METHODS FOR KILLING PESTS” (The United States of America, as represented by the …, priority 2020, published 2022).
Where “and” joins values, the source holds several entries; their conditions need not be identical. Identical values can stand only once. Marks after values point to notes of the source that are not given here.

Key:
[1] = test system: Caenorhabditis elegans; conditions: produced by Bacillus nematocida; cited from earlier work
[2] = test system: H. glycines second-stage juveniles; assay: Microwell assay: previously hatched J2 immersed in compounds, activity and viability; conditions: for % Active Day 1 / % Active Day 2: previously hatched J2 in aqueous solution; for viability at 0.1 %: Heterodera glycines, 72 h, read-out: % Viable Day 3 rinsed
Experimental: The isolate of H. glycines race 3, originally isolated in Maryland, was maintained on soybean (Glycine max cv. ‘Essex’). As previously described (Wen, Y., et al. Plant Disease, 103: 2191-2198 (2019)), the roots were gently rubbed in water to dislodge cysts and mature females. The egg suspensions were then poured through nested sieves (#20 over /#60; pore sizes 850 μm and 250 μm diam., respectively) into a 454 g/liter sucrose solution. After 15 min, the cysts and females and cysts that floated to the top were collected, rinsed in water, and crushed with a rubber stopper on a #60 sieve (250-μm diam. pore size) that was partially submerged in distilled water. The egg suspension was washed through nested #230 over #500 sieves (pore sizes 63 μm and 25-μm diam., respectively). The eggs were collected in distilled water, and J2 hatched as described above.
(§1) Compounds for the studies were purchased from three different companies: methyl benzoate, CAS Number 93-58-3, ≥99% purity; Tween 20, CAS Number: 9005-64-5; Tween 80, CAS Number: 9005-65-6; ethyl benzoate, CAS Number: 93-89-0, natural, ≥99% purity, FCC, FG; vinyl benzoate, CAS Number: 769-78-8, ≥99% purity; n-propyl benzoate, CAS Number: 2315-68-6, 99% purity; n-butyl benzoate, CAS Number: 136-60-7, 99% purity; benzyl benzoate, CAS Number: 120-51-4, natural, ≥99% purity, FCC, FG; methyl 2-methylbenzoate, CAS Number: 89-71-4, 99% purity; methyl 2-chlorobenzoate, CAS Number: 610-96-8, ≥98% purity; methyl 2-methoxybenzoate, CAS Number: 606-45-1, 99% purity and methyl 2-nitrobenzoate, CAS Number: 606-27-9, 98% purity were purchased from Sigma-Aldrich (St. Louis, Mo.). Compounds, iso-butyl benzoate, CAS Number 120-50-3, >98% purity; n-pentyl benzoate, CAS Number: 2049-96-9, ≥98% purity; and n-hexyl benzoate, CAS Number: 6789-88-4, ≥98% purity were purchased from Alfa Aesar (Tewksbury, Mass.). The compounds methyl 3-methoxybenzoate (methyl m-anisate), CAS Number: 5368-81-0; 97% and methyl 3-methylbenzoate (methyl m-toluate), CAS Number: 99-36-5, 97% purity were purchased from TCI America (Portland, Oreg.). All chemicals were used without further purification. Deionized water (DI) containing 1% emulsifier (v/v), Tween 20 and Tween 80, at 1:1 ratio was used to make different VOCs (volatile organic compounds) water solutions and also used as blank control.
(§2) For tests with individual compounds, the concentration of each compound was 0.1% before placement into wells; the final concentration in the wells was 0.095% after addition to eggs or J2 suspended in water. These are reported as 0.1% herein. An exception was Trial 2, M. incognita J2 activity and viability (Table 2): the final concentration was 0.1% after placement in wells. Low concentrations were selected for assays of combined compounds to determine if the combinations would increase nematotoxicity.
(§3) Laboratory assays were conducted in 96-well polystyrene plates following general procedures described in Wen et al. (2019). Each well received approximately 35 J2 (for previously hatched J2 assays) or 35 eggs that each contained either a first-stage juvenile (J1) or a J2. The plates were covered with plastic adhesive sealing film (Excel Scientific, Inc., Victorville Calif.) and then with the plate lids. Parafilm (Bemis, Neenah, Wis.) was used to seal the plates. The nematodes were then incubated at 26° C. […] Following the counts on Day 2, the treatments were removed and the J2 rinsed twice with SDW and incubated in the second rinse. […] Two trials were conducted for each assay.
Statistical analyses: The data were analyzed as either a general linear model using JMP or a generalized linear model for the best distribution to fit the residual using Proc Glimmix (Sas Institute). The assumptions of the model were checked. If not met, then appropriate statistical techniques were used so that data could met the assumptions of the models. In Sas, mean comparisons were done with Sidak adjusted p-values to hold the experiment-wise error at 0.05.

[3] = test system: M. incognita second-stage juveniles; assay: as above; conditions: for % Active Day 1 / % Active Day 2: previously hatched J2 in aqueous solution; for viability at 0.1 %: read-out: % Viable Day 3 rinsed
Experimental: Nematode cultures: As described in Meyer et al. (Meyer, S. L. F., et al., Nematropica, 46: 85-96 (2016)), M. incognita race 1 (originally isolated in Maryland) was maintained in a greenhouse (24° to 29° C.; natural and supplemental lighting combined for a 16-h daylength) on susceptible cayenne pepper (Capsicum annuum) TA-136′ plants. All greenhouse experiments described herein were conducted under the same conditions. Two to three months after pepper plant inoculation, egg masses were picked from roots. Eggs were separated by 5 min immersion in 0.6% sodium hypochlorite, followed by a rinse in sterile distilled water (SDW). To collect second-stage juveniles (J2) for microwell assays, the surface-sterilized eggs were placed in a hatching chamber (Spectra/Mesh Nylon Filter, openings 25-μm-diam.; Spectrum Laboratories Inc., Rancho Dominguez, Calif.) set in an autoclaved dish that was placed on a rotary shaker for 3 days at 35 rpm. For some M. incognita and H. glycines assays, 25 or […] kanamycin monosulfate (Phytotechnology Laboratories, Shawnee Mission, Kans.) was added to the hatching chamber to prevent growth of bacteria. The collected J2 were then rinsed with water to remove the kanamycin monosulfate.
as §1, §2, §3

[4] = test system: M. incognita eggs; assay: Microwell assay: eggs immersed in compounds, hatch and activity of hatched J2; type: in vivo, Meloidogyne incognita; conditions: 0.1%; for % Active Day 2 / % Active Day 5 / % Active Day 7: J2 hatched from immersed eggs; for Hatch Day 2 / Hatch Day 5 / Hatch Day 7: hatched J2 per well, about 35 eggs per well
Experimental: (§4) All chemicals were used without further purification.
(§5) These are reported as 0.1% herein.
(§6) The nematodes were then incubated at 26° C. […] Two trials were conducted for each assay.
(§7) The assumptions of the model were checked.

[5] = test system: Heterodera glycines eggs; assay: as above; type: in vivo; conditions: 0.1%; for % Active Day 2 / % Active Day 5 / % Active Day 7: J2 hatched from immersed eggs; for Hatch Day 2 / Hatch Day 5 / Hatch Day 7: hatched J2 per well, about 35 eggs per well; for pest or weed control at 0.1 %: Heterodera glycines, 168 h, Day 7, read-out: egg hatch suppression compared with the Tween control
Experimental: as §4, §5, §6, §7

[6] = test system: M. incognita; conditions: in vivo; cited from earlier work
[7] = test system: C. elegans; conditions: during the first hours of incubation; cited from earlier work
[8] = test system: X americanum adults; conditions: in vivo; cited from earlier work

Row | Structure (SMILES) | % Active Day 1 ([2]; 0.1%) | % Active Day 2 ([2]; 0.1%) | viability at 0.1 % [2] [%] | % Active Day 1 ([3]; 0.1%) | % Active Day 2 ([3]; 0.1%) | viability at 0.1 % ([3]; Meloidogyne incognita, 72 h) [%] | % Active Day 2 [4] | % Active Day 5 [4] | % Active Day 7 [4] | Hatch Day 2 [4] | Hatch Day 5 [4] | Hatch Day 7 [4] | % Active Day 2 [5] | % Active Day 5 [5] | % Active Day 7 [5] | Hatch Day 2 [5] | Hatch Day 5 [5] | Hatch Day 7 [5] | pest or weed control at 0.1 % [5] [%] | also measured
1 | O=C(OCc1ccccc1)c1ccccc1 [BB, Benzyl benzoate] | 66.4 ^bc % | 60.1 ^abc % | 41.2 | 83.2 ^a % | 83.1 ^a % | 79.9 | 67.0 ^ab % | 33.5 ^cd % | 24.8 ^b % | 2.6 ^cd | 4.2 ^cde | 4.1 ^de | 15.2 ^cd % | 17.0 ^cde % | 13.5 ^bc % | 4.1 ^cd | 4.5 ^cd | 4.6 ^cd | 64 to 80 | nematode attraction [1]: nematode attractant; reduction in % viable J2 compared with the Tween control ([2]; 0.1%, Day 3 following water rinse): 33%; % Viable Day 3 rinsed ([3]; 0.1%, after Day 2 water rinse): did not show a significant difference
2 | CC(=O)c1c(O)cc(O)c(C(C)=O)c1O [DAPG, 2,4-diacetylphloroglucinol] | – | – | – | – | – | – | – | – | – | – | – | – | – | – | – | – | – | – | – | egg hatch [6]: decreased egg hatch; hatch [7]: stimulated hatch; toxicity to adults [8]: toxic
3 | CCCCCCOC(=O)c1ccccc1 [nHB, n-Hexyl benzoate] | 73.2 ^ab % | 63.5 ^ab % | 46.2 | 84.5 ^a % | 82.4 ^c % | 66.3 | 73.2 ^ab % | 40.5 ^cd % | 16.5 ^b % | 11.6 ^ab | 13.0 ^b | 13.0 ^bc | 19.1 ^cd % | 16.8 ^cde % | 14.6 ^bc % | 7.3 ^bcd | 7.5 ^bcd | 7.6 ^bcd | – | % Viable Day 3 rinsed ([3]; in vivo): did not have a significant effect
4 | CCCCCOC(=O)c1ccccc1 [nPeB, n-Pentyl benzoate] | 54.0 ^c % | 29.1 ^de % | 28.4 | 29.9 ^bc % | 22.9 ^b % | 16.5 | 31.5 ^b % | 0 ^e % | 0% and 0 ^c % | 4.9 ^bcd | – | 6.6 ^cde | 4.2 ^d % | 4.3 ^e % | 4.2 ^c % | 7.6 ^bcd | 7.7 ^bcd | 7.5 ^bcd | – | nonviable (killed) J2 ([3]; in vivo): killed most of the J2
5 | CCCOC(=O)c1ccccc1 [nPrB, n-Propyl benzoate] | 17.2 ^d % | 10.8 ^fg % | 12.1 | 0 ^f % | 0 ^d % | 0 | 0 ^c % | 0 ^e % | 0 ^c % | 3.5 ^cd | 4.0 ^cde | 4.1 ^de | 2.2 ^d % | 0 ^f % | 0 ^d % | 5.8 ^cd | 5.8 ^cd | 5.6 ^cd | 64 to 80 | mortality at 0.1 % ([3]; Meloidogyne incognita, 72 h, read-out: nonviable (killed) J2): 100%; hatch suppression compared to the Tween control ([5]; Day 2): 60%; inactive J2 that hatched from the eggs ([5]; by Day 7): 100%
